Results from patent publication EP4603105A1, “PHARMACEUTICAL COMPOSITION CONTAINING CYCLIC COMPOUND HAVING SELECTIVE KRAS INHIBITORY EFFECT AGAINST HRAS AND NRAS” (CHUGAI SEIYAKU KABUSHIKI KAISHA, priority 2022, dated 2024).
pIC50, pKd: −log10 of the molar value.

Columns and labels:
[1] = test system: human lung cancer strain NCI-H441; type: cell-based
In short: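 Signal came from […] measured per well once the reagent was added. Beforehand, cells were cultured at 37°C and 5% carbon dioxide on a compound series serially diluted in dimethyl sulfoxide.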

[2] = target: GDP-bound KRAS wild-type protein (Homo sapiens, UniProt P01116); test: Binding to KRAS by surface plasmon resonance (SPR), dissociation constant KD
Chain of GDP-bound KRAS wild-type protein (P01116 1-188 isoform P01116-2): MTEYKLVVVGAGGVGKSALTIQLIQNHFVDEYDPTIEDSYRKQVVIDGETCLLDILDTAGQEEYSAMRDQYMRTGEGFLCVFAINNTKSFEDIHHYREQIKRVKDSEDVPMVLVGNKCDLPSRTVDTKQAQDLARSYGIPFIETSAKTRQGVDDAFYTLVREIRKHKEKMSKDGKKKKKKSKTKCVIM
In short: (§1)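 Measured at 30°C: SPR with GDP-loaded, E. coli-expressed biotin-Avi RAS captured (~100–300 RU), ascending 75 s compound injections, HBS pH 7.4 with GDP, MgCl2, 4% DMSO. KD from 1:1 fit.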

[3] = target: GDP-bound NRAS wild-type protein (Homo sapiens, UniProt P01111); test: Binding to NRAS by surface plasmon resonance (SPR), KD and KD ratio to KRAS
Chain of GDP-bound NRAS wild-type protein (P01111 whole entry): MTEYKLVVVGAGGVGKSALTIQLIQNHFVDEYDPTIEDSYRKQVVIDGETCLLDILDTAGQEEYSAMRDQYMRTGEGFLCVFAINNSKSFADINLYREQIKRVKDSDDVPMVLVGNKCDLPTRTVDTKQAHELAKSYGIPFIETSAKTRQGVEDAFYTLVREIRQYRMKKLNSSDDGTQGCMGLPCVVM
In short: as §1

HRAS wild-type protein = HRAS wild-type protein (Homo sapiens, UniProt P01112); test: Binding to HRAS by surface plasmon resonance (SPR), KD and KD ratio to KRAS
Chain of HRAS wild-type protein (P01112 whole entry): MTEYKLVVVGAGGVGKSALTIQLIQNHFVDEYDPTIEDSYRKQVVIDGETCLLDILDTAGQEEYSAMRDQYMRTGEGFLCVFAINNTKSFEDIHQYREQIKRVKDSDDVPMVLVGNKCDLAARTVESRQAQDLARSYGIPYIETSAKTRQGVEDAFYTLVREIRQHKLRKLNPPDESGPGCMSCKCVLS
In short: as §1

[4] = Single Cycle Kinetics, 1:1 binding model
[5] = ratio of the KD value with respect to GDP-bound NRAS wild-type protein to the KD value with respect to KRAS
[6] = ratio of the KD value with respect to HRAS wild-type protein to the KD value with respect to KRAS
[7] = ratio of KD for GDP-bound NRAS wild-type protein to KD for KRAS
[8] = ratio of KD for HRAS wild-type protein to KD for KRAS

Structure (SMILES)	pIC50 [1]	pKd [2, 4]	NRAS /KRAS [3, 5]	HRAS /KRAS (HRAS wild-type protein; [6])	NRAS /KRAS ([3]; ratio of KD with respect to GDP-bound NRAS wild-type protein to KD with respect to KRAS)	HRAS /KRAS (HRAS wild-type protein; ratio of KD with respect to HRAS wild-type protein to KD with respect to KRAS)	pKd ([2]; 1:1 binding model)	NRAS /KRAS [3, 7]	HRAS /KRAS (HRAS wild-type protein; [8])	pKd ([2]; Single Cycle Kinetics)
CCCN(C)C(=O)[C@@H]1CC(=O)N(C)[C@@H](C2CC2)C(=O)N[C@@H]([C@@H](C)CC)C(=O)N(C)CC(=O)N(C)[C@H]2C/C=C\CCN(C2=O)[C@@H](Cc2ccc(C(F)(F)F)cc2)C(=O)N(C)CC(=O)N[C@@H](CCc2cc(F)c(C(F)(F)F)c(F)c2)C(=O)N2C[C@H](OCC)C[C@H]2C(=O)NC2(CC(C)(C)C2)C(=O)N(C)[C@@H](C2CCCC2)C(=O)N1C [PP2037]	7.80	9.92	A (a compound having 10 or more and less than 20 is denoted as A)	A (a compound having 10 or more and less than 20 is denoted as A)						
CCCOC[C@H]1C(=O)N[C@@H]([C@@H](C)CC)C(=O)N(C)CC(=O)N(C)[C@H]2C/C=C\CCN(C2=O)[C@@H](Cc2ccc(C(F)(F)F)cc2)C(=O)N(C)CC(=O)N[C@@H](CCc2cc(F)c(C(F)(F)F)c(F)c2)C(=O)N2C[C@@H](C)C[C@H]2C(=O)NC2(CCC2)C(=O)N(C)[C@@H](C2CCCC2)C(=O)N(C)[C@H](C(=O)N(C)CCC)CC(=O)N1C [PP2008]	7.82	9.89	A (a compound having 10 or more and less than 20 is denoted as A)	A (a compound having 10 or more and less than 20 is denoted as A)						
CC[C@H](C)[C@@H]1NC(=O)[C@H](CC(C)C)N(C)C(=O)C[C@@H](C(=O)N2C[C@@H](C)O[C@@H](C)C2)N(C)C(=O)[C@H](C2CCCC2)N(C)C(=O)C2(CCCC2)NC(=O)[C@@H]2CCCN2C(=O)[C@H](CCc2ccc(C(F)(F)F)c(Cl)c2)NC(=O)CN(C)C(=O)[C@H](Cc2ccc(F)cc2)N2CCCCC[C@@H](C2=O)N(C)C(=O)CN(C)C1=O [PP1151]	7.01	9.19			B (a compound having 3 or more and less than 10 is denoted as B)	B (a compound having 3 or more and less than 10 is denoted as B)				
CCO[C@@H]1C[C@H]2C(=O)NC3(CCC3)C(=O)N(C)[C@@H](C3CCCC3)C(=O)N(C)[C@H](C(=O)N(C)CC)CC(=O)N(C)[C@@H](CC(C)C)C(=O)N[C@@H]([C@@H](C)CC)C(=O)N(C)CC(=O)N(C)[C@H]3C/C=C\CCN(C3=O)[C@@H](Cc3ccc(C(F)(F)F)cc3)C(=O)N(C)CC(=O)N[C@@H](CCc3ccc(Cl)c(Cl)c3)C(=O)N2C1 [PP2845]	7.64						9.52	AA (a compound having 20 or more is denoted as AA)	A (a compound having 10 or more and less than 20 is denoted as A)	
CCO[C@@H]1C[C@H]2C(=O)NC3(CC(C)(C)C3)C(=O)N(C)[C@@H](C(CC)CC)C(=O)N(C)[C@H](C(=O)N(C)C)CC(=O)N(C)[C@@H](CC3CC3)C(=O)N[C@@H]([C@@H](C)CC)C(=O)N(C)CC(=O)N(C)[C@H]3C/C=C\CCN(C3=O)[C@@H](Cc3ccc(C)cc3)C(=O)N(C)CC(=O)N[C@@H](CCc3ccc(Cl)c(Cl)c3)C(=O)N2C1 [PP2182]	7.71	9.14	AA (a compound having 20 or more is denoted as AA)	A (a compound having 10 or more and less than 20 is denoted as A)						
CC[C@H](C)[C@@H]1NC(=O)[C@H](CC)N(C)C(=O)C[C@@H](C(=O)N2CCOCC2)N(C)C(=O)[C@H](C2CCCC2)N(C)C(=O)C2(CCCC2)NC(=O)[C@@H]2CCCN2C(=O)[C@H](CCc2cc(F)c(C(F)(F)F)c(F)c2)NC(=O)CN(C)C(=O)[C@H](Cc2ccc(C(F)(F)F)cc2)N2CCCC[C@@H](C2=O)N(C)C(=O)CN(C)C1=O [PP0550]	8.31	10.24	B (a compound having 3 or more and less than 10 is denoted as B)	B (a compound having 3 or more and less than 10 is denoted as B)						
CC[C@H](C)[C@@H]1NC(=O)[C@H](CC(C)C)N(C)C(=O)C[C@@H](C(=O)N2CCOCC2)N(C)C(=O)[C@H](C2CCCC2)N(C)C(=O)C2(CCC2)NC(=O)[C@@H]2C[C@@H](OCC3CC3)CN2C(=O)[C@H](CCc2cc(F)c(C(F)(F)F)c(F)c2)NC(=O)CN(C)C(=O)[C@H](Cc2ccc(C(F)(F)F)cc2)N2CCCC[C@@H](C2=O)N(C)C(=O)CN(C)C1=O [PP1014]	6.94							C (A compound having a KD ratio of 0.1 or more and less than 3 is denoted as C)	C (A compound having a KD ratio of 0.1 or more and less than 3 is denoted as C)	8.96
CCO[C@@H]1C[C@H]2C(=O)NC3(CC(C)(C)C3)C(=O)N(C)[C@@H](C(CC)CC)C(=O)N(C)[C@H](C(=O)N(C)C)CC(=O)N(C)[C@@H](CC)C(=O)N[C@@H]([C@@H](C)CC)C(=O)N(C)CC(=O)N(C)[C@H]3C/C=C\CCN(C3=O)[C@@H](Cc3ccc(C(F)(F)F)cc3)C(=O)N(C)CC(=O)N[C@@H](CCc3ccc(Cl)c(Cl)c3)C(=O)N2C1 [PP2179]	7.87	8.82	AA (a compound having 20 or more is denoted as AA)	A (a compound having 10 or more and less than 20 is denoted as A)						
C#CC[C@H]1C(=O)N[C@@H]([C@@H](C)CC)C(=O)N(C)CC(=O)N(C)[C@H]2C/C=C\CCN(C2=O)[C@@H](Cc2ccc(C)cc2)C(=O)N(C)CC(=O)N[C@@H](CCc2cc(F)c(C(F)(F)F)c(F)c2)C(=O)N2CC3(CC3)C[C@H]2C(=O)NC2(CC(C)(C)C2)C(=O)N(C)[C@@H](C2CCCC2)C(=O)N(C)[C@H](C(=O)N(C)C)CC(=O)N1C [PP2978]	8.23						9.96	A (a compound having 10 or more and less than 20 is denoted as A)	A (a compound having 10 or more and less than 20 is denoted as A)	
CCO[C@@H]1C[C@H]2C(=O)NC3(CCCC3)C(=O)N(C)[C@@H](C3CCCC3)C(=O)N(C)[C@H](C(=O)N3CCOCC3)CC(=O)N(C)[C@@H](CC(C)C)C(=O)N[C@@H]([C@@H](C)CC)C(=O)N(C)CC(=O)N(C)[C@H]3CCCCCN(C3=O)[C@@H](Cc3ccc(F)cc3)C(=O)N(C)CC(=O)N[C@@H](CCc3ccc(C(F)(F)F)c(Cl)c3)C(=O)N2C1 [PP0965]	7.31							B (a compound having 3 or more and less than 10 is denoted as B)	B (a compound having 3 or more and less than 10 is denoted as B)	9.24
CCO[C@@H]1C[C@H]2C(=O)NC3(CC(C)(C)C3)C(=O)N(C)[C@@H](C3CCCC3)C(=O)N(C)[C@H](C(=O)N(C)C)CC(=O)N(C)[C@@H](CC3CC3)C(=O)N[C@@H]([C@@H](C)CC)C(=O)N(C)CC(=O)N(C)[C@H]3C/C=C\CCN(C3=O)[C@@H](Cc3ccc(C)cc3)C(=O)N(C)CC(=O)N[C@@H](CCc3ccc(C(F)(F)F)c(OC)c3)C(=O)N2C1 [PP1903]	8.26	10.20	A (a compound having 10 or more and less than 20 is denoted as A)	B (a compound having 3 or more and less than 10 is denoted as B)						
CCO[C@@H]1C[C@H]2C(=O)NC3(CCC3)C(=O)N(C)[C@@H](C3CCCC3)C(=O)N(C)[C@H](C(=O)N(C)C)CC(=O)N(C)[C@@H](CC)C(=O)N[C@@H]([C@@H](C)CC)C(=O)N(C)CC(=O)N(C)[C@H]3CC(C)=C(C)CN(C3=O)[C@@H](Cc3ccc(C(F)(F)F)cc3)C(=O)N(C)CC(=O)N[C@@H](CCc3cc(F)c(C(F)(F)F)c(F)c3)C(=O)N2C1 [PP1048]	6.87							C (A compound having a KD ratio of 0.1 or more and less than 3 is denoted as C)	C (A compound having a KD ratio of 0.1 or more and less than 3 is denoted as C)	9.31
